Laboratory results reported in patent publication US8088930B2, “Benzimidazole derivatives” (Hoffmann-La Roche Inc., priority 2008, dated 2012).

Biological target: T1, FXR ligand binding domain (GST-FXR LBD fusion protein, human FXR aa 193-473) (Homo sapiens, UniProt Q96RI1)
T1 construct: fused on or other part: Glutathione-S-transferase (GST) fused N-terminally to the FXR LBD, used to capture the protein on glutathione SPA beads
T1 sequence (Q96RI1 211-486 limits assumed): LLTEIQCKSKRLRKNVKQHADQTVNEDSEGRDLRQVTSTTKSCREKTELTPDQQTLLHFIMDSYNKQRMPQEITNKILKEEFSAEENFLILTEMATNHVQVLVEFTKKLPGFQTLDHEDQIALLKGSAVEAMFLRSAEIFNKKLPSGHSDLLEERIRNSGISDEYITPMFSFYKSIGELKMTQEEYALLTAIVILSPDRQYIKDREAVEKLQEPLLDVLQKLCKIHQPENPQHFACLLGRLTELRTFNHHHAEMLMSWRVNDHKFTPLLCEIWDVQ
Test: Radioligand binding assay (scintillation proximity, radioligand displacement)
Conditions: 40 nM GST-FXR LBD on SPA beads, test compound 6×10^−9 M to 2.5×10^−5 M, read-out: h-IC50 Binding
Summary of the method: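 40 nM GST-FXR LBD, E. coli-expressed, bound to glutathione yttrium silicate SPA beads in 50 mM Hepes pH 7.4, 10 mM NaCl, 5 mM MgCl2, 0.01% CHAPS. Test compounds displace radioligand (e.g. 20 nM benzimidazolyl-acetamide ligand); bound ligand measured by scintillation proximity counting.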

| SMILES | IC50 [nM] |
| --- | --- |
| Cc1cc(Cl)ccc1-c1nc2cc(F)c(F)cc2n1C(COc1ccc(C(=O)O)cn1)C1CCCCC1 (stereo not drawn) [Example 123, 6-{2-[2-(4-Chloro-2-methyl-phenyl)-5,6-difluoro-benzoimidazol-1-yl]-2-cyclohexyl-ethoxy}-nicotinic acid] | 30 |
| Cc1cc(Cl)ccc1-c1nc2cc(F)c(F)cc2n1C(COc1c(F)cc(C(=O)O)cc1F)C1CCCCC1 (stereo not drawn) [Example 124, 4-{2-[2-(4-Chloro-2-methyl-phenyl)-5,6-difluoro-benzoimidazol-1-yl]-2-cyclohexyl-ethoxy}-3,5-difluoro-benzoic acid] | 3 |
| Fc1cc2nc(-c3ccc(Cl)cc3)n(C(COc3c(F)cc(-c4nnn[nH]4)cc3F)C3CCCCC3)c2cc1F (stereo not drawn) [Example 127, 2-(4-Chloro-phenyl)-1-{1-cyclohexyl-2-[2,6-difluoro-4-(1H-tetrazol-5-yl)-phenoxy]-ethyl}-5,6-difluoro-1H-benzoimidazole] | 1 |
| Fc1cc(-c2nnn[nH]2)cc(F)c1OCC(C1CCCCC1)n1c(-c2ccc(Cl)cc2)nc2ccccc21 (stereo not drawn) [Example 128, 2-(4-Chloro-phenyl)-1-{1-cyclohexyl-2-[2,6-difluoro-4-(1H-tetrazol-5-yl)-phenoxy]-ethyl}-1H-benzoimidazole] | 20 |
| COc1ccc(-c2nc3cc(F)c(F)cc3n2C(COc2c(F)cc(-c3nnn[nH]3)cc2F)C2CCCCC2)c(OC)n1 (stereo not drawn) [Example 129, 1-{1-Cyclohexyl-2-[2,6-difluoro-4-(1H-tetrazol-5-yl)-phenoxy]-ethyl}-2-(2,6-dimethoxy-pyridin-3-yl)-5,6-difluoro-1H-benzoimidazole] | 20 |
| O=C(O)c1ccc(OCC(C2CCCCCC2)n2c(-c3ccc(Cl)cc3)nc3cc(F)c(F)cc32)nc1 (stereo not drawn) [Example 130, 6-{2-[2-(4-Chloro-phenyl)-5,6-difluoro-benzoimidazol-1-yl]-2-cycloheptyl-ethoxy}-nicotinic acid] | 300 |
| O=C(O)c1cc(F)c(OCC(C2CCCCCC2)n2c(-c3ccc(Cl)cc3)nc3cc(F)c(F)cc32)c(F)c1 (stereo not drawn) [Example 131, 4-{2-[2-(4-Chloro-phenyl)-5,6-difluoro-benzoimidazol-1-yl]-2-cycloheptyl-ethoxy}-3,5-difluoro-benzoic acid] | 20 |
| Cc1cc(-c2nnn[nH]2)cc(C)c1OCC(C1CCC(F)(F)CC1)n1c(-c2ccc(Cl)cc2)nc2cc(F)c(F)cc21 (stereo not drawn) [Example 134, 2-(4-Chloro-phenyl)-1-{1-(4,4-difluoro-cyclohexyl)-2-[2,6-dimethyl-4-(1H-tetrazol-5-yl)-phenoxy]-ethyl}-5,6-difluoro-1H-benzoimidazole] | 10 |
| Cc1cc(-c2nnn[nH]2)cc(C)c1OCC(C1CCCC1)n1c(-c2ccc(Cl)cc2)nc2cc(F)c(F)cc21 (stereo not drawn) [Example 135, 2-(4-Chloro-phenyl)-1-{1-cyclopentyl-2-[2,6-dimethyl-4-(1H-tetrazol-5-yl)-phenoxy]-ethyl}-5,6-difluoro-1H-benzoimidazole] | 20 |
| Cc1cc(-c2nnn[nH]2)cc(C)c1OCC(C1CC1)n1c(-c2ccc(Cl)cc2)nc2cc(F)c(F)cc21 (stereo not drawn) [Example 136, 2-(4-Chloro-phenyl)-1-{1-cyclopropyl-2-[2,6-dimethyl-4-(1H-tetrazol-5-yl)-phenoxy]-ethyl}-5,6-difluoro-1H-benzoimidazole] | 100 |
| Fc1cc2nc(-c3ccc(Cl)cc3)n(C(CNc3ccc(-c4nnn[nH]4)cc3)C3CCCCC3)c2cc1F (stereo not drawn) [Example 139, {2-[2-(4-Chloro-phenyl)-5,6-difluoro-benzoimidazol-1-yl]-2-cyclohexyl-ethyl}-[4-(1H-tetrazol-5-yl)-phenyl]-amine] | 3 |
| O=C(O)c1ccc(SCC(C2CCCCC2)n2c(-c3ccc(Cl)cc3)nc3cc(F)c(F)cc32)cc1 (stereo not drawn) [Example 140, 4-{2-[2-(4-Chloro-phenyl)-5,6-difluoro-benzoimidazol-1-yl]-2-cyclohexyl-ethylsulfanyl}-benzoic acid] | 70 |
| O=C(O)c1ccc(S(=O)(=O)CC(C2CCCCC2)n2c(-c3ccc(Cl)cc3)nc3cc(F)c(F)cc32)cc1 (stereo not drawn) [Example 141, 4-{2-[2-(4-Chloro-phenyl)-5,6-difluoro-benzoimidazol-1-yl]-2-cyclohexyl-ethanesulfonyl}-benzoic acid] | 8200 |
| O=C(O)c1ccc(CCC(C2CCCCC2)n2c(-c3ccccc3)nc3cc(F)c(F)cc32)cc1 (stereo not drawn) [Example 142, 4-[3-Cyclohexyl-3-(5,6-difluoro-2-phenyl-benzoimidazol-1-yl)-propyl]-benzoic acid] | 5 |
| COc1ccc(-c2nc3cc(F)c(F)cc3n2C(CCc2ccc(C(=O)O)cc2)C2CCCCC2)c(OC)n1 (stereo not drawn) [Example 145, 4-{3-Cyclohexyl-3-[2-(2,6-dimethoxy-pyridin-3-yl)-5,6-difluoro-benzoimidazol-1-yl]-propyl}-benzoic acid] | 0.3 |
